Source: patent US20140128431A1, “PHARMACEUTICAL COMPOSITION WITH IMPROVED BIOAVAILABILITY, SAFETY AND TOLERABILITY” (priority 2012, published 2014)

Key:
[1] = Aqueous solubility of crystalline Compound A at physiological pHs; assay type: physicochemical; settings: aqueous media at physiological pHs (pH 1.5-8.0), aqueous buffer, crystalline form
From the text: (§1) The compound is moderately permeable as determined with the Caco-2 assay value of 4.5×10-6 cm/s. Targeted high doses/frequency of dosing for this series of compounds, led to the categorization of Compound A as BCS class IV compound (low solubility/low permeability).

[2] = Caco-2 assay (permeability); assay type: in vitro ADME; settings: human
From the text: as §1

## COc1ccc(-c2cc(C(C)(C)C)c(OC)c3cc(-c4ccc(NS(C)(=O)=O)cc4)cnc23)c(=O)[nH]1 [Compound A, N-{4-[6-tert-Butyl-5-methoxy-8-(6-methoxy-2-oxo-1,2-dihydro-pyridin-3-yl)-quinolin-3-yl]-phenyl}-methanesulfonamide]
[1]
  solubility: < 1 µg/mL
[2]
  Papp: 4.5 ×10⁻⁶ cm/s
